Measurements: patent publication US12109176B1, “Effect of glycerol on biofilm forming bacteria and fungi that changes the microbes sensitivity to pro and anti-biofilm non-toxic, non-bonded plasma amino acids and amino acid derivatives” (priority 2023, dated 2024)

Key:
[1] = tested on: bacterial biofilm; experiment: In vitro testing on bacterial biofilm (inhibition and/or disruption); format: cell-based; conditions: in vitro testing
Protocol: (§1) Two types of biofilm assays were performed: an inhibition assay and a disruption assay. The inhibition assay assesses the compound's ability to prevent biofilm development, while the disruption assay assesses the compound's ability to break up an existing mature biofilm.
(§2) All bacterial biofilm solutions were prepared in Tryptic Soy Broth (TSB), supplemented with 1% glucose (henceforth referred to as TSB-G). All subsequent procedures were performed in a manner that maintained sterility. A solution of each amino acid or an amino acid derivative to be tested was prepared in weight to volume concentrations ranging from 0.1-5.0%. Amino acids and amino acid derivatives were also tested in combinations. Compound solutions were homogenized with gentle agitation in the dark (4° C., 24 hours) before use.
(§3) 32 Amino acids and 2 amino acid derivatives of the amino acid serine that occur freely in human blood were tested. […] 31 of the 32 amino acids that were tested were the L-Isomers. Glycine has no stereoisomers. The 2 amino acid derivatives, ethanolamine and phosphoethanolamine were also tested. All biofilm assays were performed using 384-well non-tissue culture-treated polystyrene plates. The fungal species tested are as follows: Candida albicans, Candida guilliermondii, Candida parapsilosis, Candida glabrata, Candida tropicalis and Candida dubliniensis. The bacterial species tested are as follows: Staphylococci (standard wild type and methicillin-resistant strain USA300), Escherichia coli, Pseudomonas aeruginosa and Staphylococcus epidermidis.
(§4) Bacterial strains were streaked on Blood Agar plates (5% sheep blood in Tryptic Soy Broth) and incubated at 37° C. for 24 hours. A single colony from each strain to be tested was inoculated in a TSB broth and grown for 12 hours, at 37° C. with shaking (225 rpm). For the bacterial biofilm inhibition assays, 1 μL of saturated overnight cell culture was added to either 80 μL of TSB-G, or TSB-G supplemented with the amino acid compound solution to be tested, in a 384-well plate. The cells were allowed to adhere to the plate for 60 minutes at 37° C. without shaking. The media was carefully aspirated and 80 μL of TSB-G, or TSB-G supplemented with the amino acid compound solution was added to the plate. The plate was further incubated for 24 hours at 37° C. without shaking. Media was carefully aspirated and the biofilm was measured by optical density at 600 nm. Eight or twelve replicates were performed for each tested condition and the reported values are normalized to the control (TSB-G media only). For the bacterial biofilm disruption assays, 80 µL of TSB-G was added to the plate, along with 1 μL of overnight cell culture. The cells were allowed to adhere to the plate for 60 minutes at 37° C. with no shaking. The media was carefully aspirated and 80 μL of TSB-G was added to the plate. The plate was further incubated for 24 hours at 37° C. with no shaking. Media was carefully aspirated from the mature biofilm and 80 μL of TSB-G, or TSB-G supplemented with the amino acid to be tested, was gently added to the plate. The plate was further incubated for 24 hours at 37° C. without shaking. Media was aspirated and the biofilm was measured by optical density at 600 nm. Twelve replicates were performed for each tested condition and the reported values are normalized to the control (TSB-G media only).

[2] = tested on: bacterial (S. aureus) biofilm and fungal biofilm (C. albicans); experiment: Biofilm inhibition assay, bacterial and fungal taken together; format: cell-based; conditions: symbol marks the assay
Protocol: as §1, §2, §3
Fungal strains were streaked on Yeast Peptone Dextrose (YPD) agar plates and incubated at 30° C. for 48 hours. A single colony from each strain to be tested was inoculated into YPD broth and grown for 12 hours at 30° C., shaking at 225 rpm. […] The cells were allowed to adhere to the plate for 90 minutes at 37° C. with shaking (350 rpm). […] The plate was further incubated for 24 hours at 37° C. with shaking (350 rpm). Media was carefully aspirated and the biofilm was measured by optical density at 600 nm. […] The cells were allowed to adhere to the plate for 90 minutes at 37° C. with shaking (350 rpm). […] The plate was further incubated for 24 hours at 37° C. with shaking (350 rpm). […] The plate was further incubated for 24 hours at 37° C. with shaking (350 rpm). Media was carefully aspirated, and the biofilm was measured by optical density at 600 nm.
as §4, with “plate.” for “plate. The plate was further incubated for 24 hours at 37° C. without shaking. Media was aspirated and the biofilm was measured by optical density at 600 nm. Twelve replicates were performed for each tested condition and the reported values are normalized to the control (TSB-G media only).”

[3] = tested on: bacterial (S. aureus) biofilm; experiment: Bacterial biofilm inhibition assay; format: cell-based, Staphylococcus aureus
Protocol: as §1, §2, §3, §4

[4] = Table D, Neutral = no effect on the biofilm
[5] = Table E, in the absence of an infusion of glycerol
[6] = Table F, in the presence of a sufficient concentration of glycerol

Row | Compound | effect on bacterial biofilm (in words) [1] | Neutral (square: Inhibition Biofilm Assay) [2, 4] | Neutral (square: Inhibition Biofilm Assay) [2, 5] | Neutral (square: Inhibition Biofilm Assay) [2, 6] | Reduce or Inhibit B Biofilm (squares: Inhibition Biofilm Assay) ([3]; Table D, 0.1 to 5.0%) | Reduce or Inhibit B Biofilm (squares: Inhibition Biofilm Assay) [3, 6] | Promote B Biofilm (squares: Inhibition Biofilm Assay) ([3]; Table D, 0.1 to 5.0%) | Promote B Biofilm (squares: Inhibition Biofilm Assay) [3, 5]
1 | C[C@@H](O)[C@H](N)C(=O)O [Threnonine, L-threonine] | promoted bacterial biofilm formation |  |  |  |  |  |  | 
2 | NCCC[C@H](N)C(=O)O [Ornithine, L-ornithine] | promoted bacterial biofilm formation | ▪ (Single square [ie. ▪] signifies little effect on the Inhibition Biofilm Assay (from about 10 to less than 30%)) | ▪ (Single square [ie. ▪] signifies little effect on the Inhibition Biofilm Assay (from about 10 to less than 30%)) | ▪ (Single square [ie. ▪] signifies little effect on the Inhibition Biofilm Assay (from about 10 to less than 30%)) |  |  |  | 
3 | NCCC(=O)O [Beta-Alanine, Beta-alanine] | antibacterial biofilm effect |  |  |  | ▪ (Single square [ie. ▪] signifies little effect on the Inhibition Biofilm Assay (from about 10 to less than 30%)) | ▪ (Single square [ie. ▪] signifies little effect on the Inhibition Biofilm Assay (from about 10 to less than 30%)) |  | 
4 | NCCS(=O)(=O)O [Taurine, L-taurine] | promoted bacterial biofilm formation |  |  |  |  |  |  | 
5 | Cn1cnc(C[C@H](N)C(=O)O)c1 [1-Methylhistidine, 1-methyl-L-histidine] |  | ▪ (Single square [ie. ▪] signifies little effect on the Inhibition Biofilm Assay (from about 10 to less than 30%)) | ▪ (Single square [ie. ▪] signifies little effect on the Inhibition Biofilm Assay (from about 10 to less than 30%)) | ▪ (Single square [ie. ▪] signifies little effect on the Inhibition Biofilm Assay (from about 10 to less than 30%)) |  |  |  | 
6 | NCCCC[C@H](N)C(=O)O [Lysine, L-lysine] | promoted bacterial biofilm formation |  |  |  |  |  | ▪ (Single square [ie. ▪] signifies little effect on the Inhibition Biofilm Assay (from about 10 to less than 30%)) | ▪ (Single square [ie. ▪] signifies little effect on the Inhibition Biofilm Assay (from about 10 to less than 30%))
7 | CC(C)C[C@H](N)C(=O)O [Leucine, L-leucine] | promoted bacterial biofilm formation |  |  |  |  |  | ▪ (Single square [ie. ▪] signifies little effect on the Inhibition Biofilm Assay (from about 10 to less than 30%)) | ▪ (Single square [ie. ▪] signifies little effect on the Inhibition Biofilm Assay (from about 10 to less than 30%))
8 | NCC(=O)O [Glycine, L-glycine] | promoted bacterial biofilm formation |  |  |  |  |  | ▪ (Single square [ie. ▪] signifies little effect on the Inhibition Biofilm Assay (from about 10 to less than 30%)) | ▪ (Single square [ie. ▪] signifies little effect on the Inhibition Biofilm Assay (from about 10 to less than 30%))
9 | NC(=O)C[C@H](N)C(=O)O [Asparagine, L-asparagine] | promoted bacterial biofilm formation |  |  |  |  |  | ▪ (Single square [ie. ▪] signifies little effect on the Inhibition Biofilm Assay (from about 10 to less than 30%)) | ▪ (Single square [ie. ▪] signifies little effect on the Inhibition Biofilm Assay (from about 10 to less than 30%))
10 | CCC(N)C(=O)O (stereo not shown) [2 Aminobutyric Acid, 2-aminobutyric acid] |  | ▪ (Single square [ie. ▪] signifies little effect on the Inhibition Biofilm Assay (from about 10 to less than 30%)) | ▪ (Single square [ie. ▪] signifies little effect on the Inhibition Biofilm Assay (from about 10 to less than 30%)) | ▪ (Single square [ie. ▪] signifies little effect on the Inhibition Biofilm Assay (from about 10 to less than 30%)) |  |  |  | 
11 | O=C(O)[C@@H]1CCCN1 [Proline, L-proline] | promoted bacterial biofilm formation | ▪ (Single square [ie. ▪] signifies little effect on the Inhibition Biofilm Assay (from about 10 to less than 30%)) | ▪ (Single square [ie. ▪] signifies little effect on the Inhibition Biofilm Assay (from about 10 to less than 30%)) | ▪ (Single square [ie. ▪] signifies little effect on the Inhibition Biofilm Assay (from about 10 to less than 30%)) |  |  |  | 
12 | N[C@@H](Cc1ccccc1)C(=O)O [Phenylalanine, L-phenylalanine] | promoted bacterial biofilm formation |  |  |  |  |  | ▪ (Single square [ie. ▪] signifies little effect on the Inhibition Biofilm Assay (from about 10 to less than 30%)) | ▪ (Single square [ie. ▪] signifies little effect on the Inhibition Biofilm Assay (from about 10 to less than 30%))
13 | CSCC[C@H](N)C(=O)O [Methionine, L-methionine] | promoted bacterial biofilm formation |  |  |  |  |  | ▪ (Single square [ie. ▪] signifies little effect on the Inhibition Biofilm Assay (from about 10 to less than 30%)) | ▪ (Single square [ie. ▪] signifies little effect on the Inhibition Biofilm Assay (from about 10 to less than 30%))
14 | NC(=O)NCCC[C@H](N)C(=O)O [Citrulline, L-citrulline] | promoted bacterial biofilm formation |  |  |  |  |  | ▪ (Single square [ie. ▪] signifies little effect on the Inhibition Biofilm Assay (from about 10 to less than 30%)) | ▪ (Single square [ie. ▪] signifies little effect on the Inhibition Biofilm Assay (from about 10 to less than 30%))
15 | CC[C@H](C)[C@H](N)C(=O)O [Isoleucine, L-isoleucine] | promoted bacterial biofilm formation |  |  |  |  |  | ▪ (Single square [ie. ▪] signifies little effect on the Inhibition Biofilm Assay (from about 10 to less than 30%)) | ▪ (Single square [ie. ▪] signifies little effect on the Inhibition Biofilm Assay (from about 10 to less than 30%))
